Here are results for 14 molecules from the SangsterLogP compilation.

The nature of the data set: method code SF, from Furst, W.; Becher, M. (1990). Homologues of 2-acetamido-4-nitropropoxybenzene (Falimint). I. Preparation, physicochemical and organoleptic properties. Pharmazie, 45(12)934-935.
One may read the logP as a log measure of how a compound divides between an organic and an aqueous phase. The low end stands for a more hydrophilic compound, the high end for a more lipophilic compound. `CCCCCCCCCCCC(=O)Nc1cc([N+](=O)[O-])ccc1OCCC`: the logP came out at 3.48.

For `CCCCCCCCCCCCOc1ccc([N+](=O)[O-])cc1NC(C)=O`, the logP worked out at 3.65.

On to `CCCCCOc1ccc([N+](=O)[O-])cc1NC(C)=O`, for which the logP was 2.67.

`CCCOc1ccc([N+](=O)[O-])cc1NC(C)=O` returned a lipophilicity (logP) of 1.6.

Molecule `CCCCCCOc1ccc([N+](=O)[O-])cc1NC(C)=O` had a logP of 2.91.

As for `CCCOc1ccc([N+](=O)[O-])cc1NC(=O)CC`, the logP came out at 1.93.

`CCCCCCCCOc1ccc([N+](=O)[O-])cc1NC(C)=O` had a logP of 3.18.

`CCCOc1ccc([N+](=O)[O-])cc1NC(=O)CCC` yielded a logP of 2.4.

`CCCCCC(=O)Nc1cc([N+](=O)[O-])ccc1OCCC`: the log partition coefficient (logP) worked out at 2.78.

As to `COc1ccc([N+](=O)[O-])cc1NC(C)=O`, the logP was 1.6.

On to `CCCCCCCCCC(=O)Nc1cc([N+](=O)[O-])ccc1OCCC`, for which the log partition coefficient (logP) came out at 3.3.

`CCOc1ccc([N+](=O)[O-])cc1NC(=O)CC` had a logP of 1.85.

With `CCCCCCCC(=O)Nc1cc([N+](=O)[O-])ccc1OCCC`, the lipophilicity (logP) turned out to be 3.14.

Molecule `CCCCOc1ccc([N+](=O)[O-])cc1NC(C)=O` yielded a log partition coefficient (logP) of 2.26.
